Data reported in PMC7970697, “Inhibition and Induction by Poziotinib of Different Rat Cytochrome P450 Enzymes In Vivo and in an In Vitro Cocktail Method” (Frontiers in Pharmacology, 2021).

Experiments:
cyp1a2 = assay: Effect of poziotinib on cyp1a2 activity in rats (phenacetin pharmacokinetics); format: in vivo, Sprague-Dawley rats; conditions: poziotinib 5 mg/kg oral 7 days, phenacetin probe
Experimental: Twelve male Sprague-Dawley rats (230 ± 20 g) were randomly divided into treated and control groups, with 6 in each group. […] The supernatant was mixed with 200 μL of acetonitrile and 20 μL of 0.5 μg/ml diazepam (IS), vortexed for 30 s, centrifuged at 13,000 rpm for 5 min, and the supernatant was injected into the UPLC-MS/MS system for analysis.
Pharmacokinetic parameters were calculated using DAS software (Version 3.2.8). SPSS software (version 16.0; SPSS Inc., Chicago, IL, United States) was used to analyze the significance of differences between the main pharmacokinetic parameters. p < 0.05 was considered statistically significant. GraphPad (version 8.0; GraphPad Software Inc., San Diego, CA, United States) was used to calculate IC50 and plot the plasma concentration-time curves and inhibition plots (type of inhibition, time- and concentration-dependence).

cyp2b1 = target: T1, cyp2b1 (Rattus norvegicus, UniProt P00176); assay: Mechanism of inhibition (Lineweaver-Burk plots), bupropion in RLMs; format: in vitro ADME; design: from tissue; host or cells: rat liver microsomes, prepared in-house
T1 sequence (P00176 1-491): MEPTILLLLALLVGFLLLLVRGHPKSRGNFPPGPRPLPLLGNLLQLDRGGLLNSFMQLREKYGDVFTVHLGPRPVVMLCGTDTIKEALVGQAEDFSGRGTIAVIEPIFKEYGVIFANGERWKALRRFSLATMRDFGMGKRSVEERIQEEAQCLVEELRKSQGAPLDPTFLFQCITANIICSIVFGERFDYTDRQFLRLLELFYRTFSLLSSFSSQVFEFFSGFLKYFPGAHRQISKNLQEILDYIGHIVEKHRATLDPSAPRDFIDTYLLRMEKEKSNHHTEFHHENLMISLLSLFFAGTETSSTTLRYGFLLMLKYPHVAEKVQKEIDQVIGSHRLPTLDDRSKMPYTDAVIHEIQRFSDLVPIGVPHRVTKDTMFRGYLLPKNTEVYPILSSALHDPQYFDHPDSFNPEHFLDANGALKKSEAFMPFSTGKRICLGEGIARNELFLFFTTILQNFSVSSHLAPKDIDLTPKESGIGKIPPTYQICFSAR
Experimental: (§1) To elucidate the mechanism of inhibition of cyp2b1 and 2c11 by poziotinib, we examined the interaction of different concentrations of poziotinib with bupropion and tolbutamide, respectively. Poziotinib was preincubated with 1 mg/ml of RLMs and probe substrate in a 37°C shaking water bath for 5 min, following which NADPH was added and incubated for 30 min. The concentrations of poziotinib were 0, 2, 4, 8 and 16 μM for 2b1, 0, 5, 10 20 and 40 μM for 2c11. The concentrations of bupropion were 5, 10, 20, and 40 μM, and the concentrations of tolbutamide were 25, 50, 100, and 200 μM. Poziotinib was incubated with different concentrations of the probe substrates in triplicate. The reactions were carried out, stopped, and processed as described in 2.3. Lineweaver-Burk plots were graphed.

cyp2c11 = target: T2, cyp2c11 (Rattus norvegicus, UniProt P08683); assay: Mechanism of inhibition (Lineweaver-Burk plots), tolbutamide in RLMs; format: in vitro ADME; design: from tissue; host or cells: rat liver microsomes, prepared in-house
T2 sequence (P08683 1-500): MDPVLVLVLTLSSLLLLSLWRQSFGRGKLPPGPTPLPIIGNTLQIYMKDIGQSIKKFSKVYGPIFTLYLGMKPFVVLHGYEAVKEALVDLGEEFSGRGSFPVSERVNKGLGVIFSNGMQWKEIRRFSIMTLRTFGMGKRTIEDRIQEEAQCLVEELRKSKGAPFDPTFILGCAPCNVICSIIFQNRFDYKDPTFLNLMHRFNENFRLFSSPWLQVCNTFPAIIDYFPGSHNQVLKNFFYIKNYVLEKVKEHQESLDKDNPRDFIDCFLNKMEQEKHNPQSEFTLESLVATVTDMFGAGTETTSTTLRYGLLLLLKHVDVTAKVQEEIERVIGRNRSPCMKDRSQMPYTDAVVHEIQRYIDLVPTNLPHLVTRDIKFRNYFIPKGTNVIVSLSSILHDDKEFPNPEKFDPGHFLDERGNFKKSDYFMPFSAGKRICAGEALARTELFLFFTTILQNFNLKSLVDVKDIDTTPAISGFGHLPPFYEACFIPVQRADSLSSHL
Experimental: as §1

`C=CC(=O)N1CCC(Oc2cc3c(Nc4ccc(Cl)c(Cl)c4F)ncnc3cc2OC)CC1` [Poziotinib] was tested, and the “effect on cyp1a2 activity in rats” value (cyp1a2) was “induces cyp1a2 activity”, the “type of inhibition of cyp2b1” value (cyp2b1; Lineweaver-Burk plots) was “competitive” and the Ki (cyp2b1; rat liver microsomes, bupropion 5-40 μM, poziotinib 0-16 μM, secondary plot) was 16.2 µM. For the same compound, the “type of inhibition of cyp2c11” value (cyp2c11; Lineweaver-Burk plots) was “competitive” and the Ki (cyp2c11; rat liver microsomes, tolbutamide 25-200 μM, poziotinib 0-40 μM, secondary plot) was 17.7 µM.
